This is an account of results in patent US20250230147A1, “LACTAMS AS CBL-B INHIBITORS” (Genentech, Inc., priority 2021, published 2025).

Counter-ions that a name gives are not always drawn.

The target of one experiment is Cbl-b (Homo sapiens (Human), UniProt Q13191). Briefly: Cbl-b LCK Ub TR-FRET assay (Cbl-b Lck HTRF). The class given is biochemical. The procedure, abridged: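 TR-FRET (340 nm excitation, 615/665 nm emission) read after adding HA-ubiquitin–UBE2D2 thioester, anti-HA-D2 and streptavidin-Eu. Beforehand, compounds incubated 60 min with biotinylated Cbl-b, then 90 min with His-LCK and ATP (1 mM in 2× mix); IC50 from 10 concentrations, DMSO high and no-LCK low controls.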

A further experiment has as its target c-Cbl (Homo sapiens (Human), UniProt P22681). Put plainly: C-Cbl LCK Ub TR-FRET assay (c-cbl Lck HTRF). The class given is biochemical. The following applies: for (fold-selectivity): C-cbl Lck HTRF IC50 relative to Cbl-b Lck HTRF IC50. An outline of the steps:
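Detection reagents added, brief spin, 20 min RT. IC50 fit normalized to no-LCK (low) and DMSO (high) controls.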

Sequence of Cbl-b (Q13191 40-426): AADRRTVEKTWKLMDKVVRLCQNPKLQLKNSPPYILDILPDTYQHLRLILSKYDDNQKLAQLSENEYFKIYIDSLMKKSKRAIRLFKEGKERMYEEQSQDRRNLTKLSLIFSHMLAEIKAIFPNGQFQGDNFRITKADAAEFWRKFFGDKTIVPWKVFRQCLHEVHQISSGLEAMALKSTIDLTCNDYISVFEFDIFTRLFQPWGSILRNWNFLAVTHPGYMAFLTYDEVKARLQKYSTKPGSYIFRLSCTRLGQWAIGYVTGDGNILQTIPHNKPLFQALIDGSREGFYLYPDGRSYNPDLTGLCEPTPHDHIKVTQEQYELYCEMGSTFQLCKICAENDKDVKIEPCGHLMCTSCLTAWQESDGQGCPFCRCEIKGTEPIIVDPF
Sequence of c-Cbl (P22681 47-435): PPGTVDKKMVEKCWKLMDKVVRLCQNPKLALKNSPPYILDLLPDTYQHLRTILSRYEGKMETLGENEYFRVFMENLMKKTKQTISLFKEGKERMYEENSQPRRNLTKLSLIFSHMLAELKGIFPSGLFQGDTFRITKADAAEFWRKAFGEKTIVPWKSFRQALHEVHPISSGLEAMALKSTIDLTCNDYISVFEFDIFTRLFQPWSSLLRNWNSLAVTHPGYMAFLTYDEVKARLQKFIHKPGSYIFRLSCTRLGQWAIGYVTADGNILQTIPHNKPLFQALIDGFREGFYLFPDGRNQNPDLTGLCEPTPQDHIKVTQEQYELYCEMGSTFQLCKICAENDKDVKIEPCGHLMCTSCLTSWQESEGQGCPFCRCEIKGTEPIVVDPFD

Turning to `Cn1cnnc1CC1(c2cc(NC3CCCC3)nc(N3Cc4c(cc(CNC5(C)CCC5)cc4C(F)(F)F)C3=O)c2)CCC1` [Compound 295, 2-(6-(cyclopentylamino)-4-(1-((4-methyl-4H-1,2,4-triazol-3-yl)methyl)cyclobutyl)pyridin-2-yl)-6-(((1-methylcyclobutyl)amino)methyl)-4-(trifluoromethyl)isoindolin-1-one], at Cbl-b, half-maximal inhibition (IC50) required 44 nM. In addition, on c-Cbl, the IC50 worked out at 33 nM and the “(fold-selectivity)” value is listed as “(0.75x)”.
On Cbl-b, `Cn1cnnc1[C@H](F)C1(c2cccc(N3Cc4c(cc(CN5CC(C)(CO)C5)cc4C(F)(F)F)C3=O)c2)CC1` [Compound 126, (R)-2-(3-(1-(fluoro(4-methyl-4H-1,2,4-triazol-3-yl)methyl)cyclopropyl)phenyl)-6((3-(hydroxymethyl)-3-methylazetidin-1-yl)methyl)-4-(trifluoromethyl)isoindolin-1-one] showed an IC50 of 64 nM. At c-Cbl, inhibition was half-maximal at 93 nM (IC50) and the “(fold-selectivity)” value turned out to be 1.5x.
The like results for `Cn1cnnc1CC(F)(F)c1cccc(N2Cc3c(cccc3C(F)(F)F)C2=O)c1` [Compound 15, 2-(3-(1,1-difluoro-2-(4-methyl-4H-1,2,4-triazol-3-yl)ethyl)phenyl)-4-(trifluoromethyl)isoindolin-1-one] were, in that order, 3500 nM, 6400 nM and 1.8x.
As for `CC(C)[C@H]1CN(C2COC2)CCN1Cc1cc2c(c(C(F)(F)F)c1)CN(c1cccc(C3([C@@H](F)c4nncn4C)COC3)c1)C2=O` [Compound 200, 2-(3-(3-((R)-fluoro(4-methyl-4H-1,2,4-triazol-3-yl)methyl)oxetan-3-yl)phenyl)-6-(((S)-2-isopropyl-4-(oxetan-3-yl)piperazin-1-yl)methyl)-4-(trifluoromethyl)isoindolin-1-one], the values for the IC50 on Cbl-b and at c-Cbl were 27 nM and 39 nM, respectively. For the same compound, the “(fold-selectivity)” value on c-Cbl is given as 1.5x.
Turning to `C=CC1(O)CN(Cc2cc3c(c(C(F)(F)F)c2)CN(c2cccc(C4([C@H](F)c5nncn5C)COC4)c2)C3=O)C1` [Compound 170, (S)-2-(3-(3-(fluoro(4-methyl-4H-1,2,4-triazol-3-yl)methyl)oxetan-3-yl)phenyl)-6-((3-hydroxy-3-vinylazetidin-1-yl)methyl)-4-(trifluoromethyl)isoindolin-1-one], the IC50 against Cbl-b was 140 nM; against c-Cbl, 360 nM. Besides, the “(fold-selectivity)” value at c-Cbl came out at 2.5x.
Regarding `Cn1cnnc1[C@@H](F)C1(c2cccc(N3Cc4c(cc(CN5CC6CC6C5)cc4C(F)(F)F)C3=O)c2)COC1` (stereo partly drawn) [Compound 85, 6-((3-azabicyclo[3.1.0]hexan-3 yl)methyl)-2-(3-(3-((S)-fluoro(4-methyl-4H-1,2,4-triazol-3-yl)methyl)oxetan-3-yl)phenyl)-4-(trifluoromethyl)isoindolin-1-one], on Cbl-b, 180 nM corresponded to half-maximal inhibition (IC50). In addition, at c-Cbl, the IC50 is 370 nM and the “(fold-selectivity)” value is 2.0x.
The like results for `CCCNCc1cc2c(c(C(F)(F)F)c1)CN(c1cccc(C3([C@@H](F)c4nncn4C)CC(F)(F)C3)c1)C2=O` [Compound 445, (R)-2-(3-(3,3-difluoro-1-(fluoro(4-methyl-4H-1,2,4-triazol-3-yl)methyl)cyclobutyl)phenyl)-6-((propylamino)methyl)-4-(trifluoromethyl)isoindolin-1-one] were, in that order, 26 nM, 33 nM and “(1.3x)”.
The like results for `Cn1cnnc1[C@H](F)C1(c2cccc(N3Cc4c(cc(CN5CCC5)cc4C(F)(F)F)C3=O)c2)CC(F)(F)C1` [Compound 397, (R)-6-(azetidin-1-ylmethyl)-2-(3-(3,3-difluoro-1-(fluoro(4-methyl-4H-1,2,4-triazol-3-yl)methyl)cyclobutyl)phenyl)-4-(trifluoromethyl)isoindolin-1-one] were, in that order, 150 nM, 150 nM and “(1.0x)”.
Take `Cn1cnnc1CC1(c2cccc(N3Cc4c(cc(C5CNC5)cc4C(F)(F)F)C3=O)c2)COC1` [Compound 12, 6-(azetidin-3-yl)-2-(3-(3-((4-methyl-4H-1,2,4-triazol-3-yl)methyl)oxetan-3-yl)phenyl)-4-(trifluoromethyl)isoindolin-1-one]: the IC50 against Cbl-b was found to be 220 nM; on c-Cbl it was 210 nM. In addition, at c-Cbl, the “(fold-selectivity)” value was 0.94x.
At Cbl-b, `C[C@H](c1cc2c(c(C(F)(F)F)c1)CN(c1cccc(C3([C@H](F)c4nncn4C)COC3)c1)C2=O)N1CC(C)(F)C1` [Compound 111, 2-(3-(3-((S)-fluoro(4-methyl-4H-1,2,4-triazol-3-yl)methyl)oxetan-3-yl)phenyl)-6-((R)-1-(3-fluoro-3-methylazetidin-1-yl)ethyl)-4-(trifluoromethyl)isoindolin-1-one] registered a half-maximal inhibitory concentration (IC50) of 190 nM. Besides, at c-Cbl, it took 340 nM to reach half-maximal inhibition (IC50) and the “(fold-selectivity)” value was 1.8x.
The like results for `C[C@@H]1CN(Cc2cc3c(c(C(F)(F)F)c2)CN(c2cccc(C4(Cc5nncn5C)CC(F)(F)C4)c2)C3=O)CCN1` [Compound 424, (R)-2-(3-(3,3-difluoro-1-((4-methyl-4H-1,2,4-triazol-3-yl)methyl)cyclobutyl)phenyl)-6-((3-methylpiperazin-1-yl)methyl)-4-(trifluoromethyl)isoindolin-1-one] were, in that order, 42 nM, 31 nM and “(0.73x)”.
The like results for `Cn1cnnc1CC1(c2cccc(N3Cc4c(cc(CN5CC(C)(F)C5)cc4C(F)(F)F)C3=O)c2)CC(F)(F)C1` [Compound 107, 2-(3-(3,3-difluoro-1-((4-methyl-4H-1,2,4-triazol-3-yl)methyl)cyclobutyl)phenyl)-6-((3-fluoro-3-methylazetidin-1-yl)methyl)-4-(trifluoromethyl)isoindolin-1-one] were, in that order, 18 nM, 19 nM and 1.0x.
`Cn1cnnc1[C@@H](F)C1(c2cccc(N3Cc4c(cc(CN5CC(C)(O)C5)cc4C(F)(F)F)C3=O)c2)CC(F)(F)C1` [Compound 52, (S)-2-(3-(3,3-difluoro-1-(fluoro(4-methyl-4H-1,2,4-triazol-3-yl)methyl)cyclobutyl)-phenyl)-6-((3-hydroxy-3-methylazetidin-1-yl)methyl)-4-(trifluoromethyl)isoindolin-1-one]: the IC50 against Cbl-b was found to be 62 nM. At c-Cbl, half-maximal inhibition (IC50) was put at 130 nM and the “(fold-selectivity)” value is 2.1x.
As for `CC(C)[C@H]1CN(C)CCN1Cc1cc2c(c(C(F)(F)F)c1)CN(c1cc(C3(Cc4nncn4C)COC3)cc(NC3CCCC3)n1)C2=O` [Compound 297, (S)-2-(6-(cyclopentylamino)-4-(3-((4-methyl-4H-1,2,4-triazol-3-yl)methyl)oxetan-3-yl)pyridin-2-yl)-6-((2-isopropyl-4-methylpiperazin-1-yl)methyl)-4-(trifluoromethyl)isoindolin-1-one formate], the IC50 on Cbl-b amounted to 9.1 nM; on c-Cbl, 8 nM.
`Cn1cnnc1CC1(c2cc(NCCc3c[nH]c4ccccc34)nc(N3Cc4c(cc(CNC5(C)CCC5)cc4C(F)(F)F)C3=O)c2)CCC1` [Compound 316, 2-(6-((2-(1H-indol-3-yl)ethyl)amino)-4-(1-((4-methyl-4H-1,2,4-triazol-3-yl)methyl)cyclobutyl)pyridin-2-yl)-6-(((1-methylcyclobutyl)amino)methyl)-4-(trifluoromethyl)isoindolin-1-one] came in with an IC50 against Cbl-b of 16 nM. Moreover, on c-Cbl, the IC50 turned out to be 20 nM and the “(fold-selectivity)” value is listed as “(1.2x)”.
